Data taken from patent US12421252B2, “Spiro (isobenzofuranazetidine) compounds for the treatment of autoimmune disease” (Hoffmann-La Roche Inc., priority 2020, dated 2025).

target: T1, human TLR7 (Homo sapiens, UniProt Q9NYK1); assay: HEK293-Blue-hTLR-7 cells assay; type: cell-based; details: HEK293-Blue-hTLR7 cells, R848 stimulation, 20 hrs, SEAP reporter; read-out: HEK/hTLR7 IC50
T1 sequence (Q9NYK1 27-1049): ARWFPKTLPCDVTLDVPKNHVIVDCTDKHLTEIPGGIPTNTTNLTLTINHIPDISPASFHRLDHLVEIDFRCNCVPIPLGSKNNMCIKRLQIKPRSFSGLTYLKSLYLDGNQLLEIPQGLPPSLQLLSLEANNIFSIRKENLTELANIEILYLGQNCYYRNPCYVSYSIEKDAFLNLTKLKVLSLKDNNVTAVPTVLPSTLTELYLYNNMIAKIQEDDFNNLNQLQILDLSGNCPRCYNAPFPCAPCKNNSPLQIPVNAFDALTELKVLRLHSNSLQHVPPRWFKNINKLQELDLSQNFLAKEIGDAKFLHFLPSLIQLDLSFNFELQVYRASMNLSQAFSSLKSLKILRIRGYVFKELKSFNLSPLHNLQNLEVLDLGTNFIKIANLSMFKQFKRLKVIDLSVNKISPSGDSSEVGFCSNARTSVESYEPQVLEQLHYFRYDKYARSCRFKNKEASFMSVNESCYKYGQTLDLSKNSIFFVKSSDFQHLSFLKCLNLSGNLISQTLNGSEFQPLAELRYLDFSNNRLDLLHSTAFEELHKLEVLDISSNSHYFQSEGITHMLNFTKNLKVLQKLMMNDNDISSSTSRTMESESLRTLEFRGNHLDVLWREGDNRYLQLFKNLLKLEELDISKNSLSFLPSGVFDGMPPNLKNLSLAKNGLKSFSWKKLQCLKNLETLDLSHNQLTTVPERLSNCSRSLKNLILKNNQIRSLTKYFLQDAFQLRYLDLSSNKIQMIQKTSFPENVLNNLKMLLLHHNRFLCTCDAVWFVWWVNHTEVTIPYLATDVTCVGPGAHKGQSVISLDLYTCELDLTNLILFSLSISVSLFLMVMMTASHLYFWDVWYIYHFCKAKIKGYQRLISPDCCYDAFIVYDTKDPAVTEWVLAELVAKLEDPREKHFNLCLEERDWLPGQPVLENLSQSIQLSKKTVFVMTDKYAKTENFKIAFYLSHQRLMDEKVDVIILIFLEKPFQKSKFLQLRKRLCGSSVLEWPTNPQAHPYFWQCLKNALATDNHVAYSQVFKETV
Source text: HEK293-Blue-hTLR-7 cells assay:
A stable HEK293-Blue-hTLR-7 cell line was purchased from InvivoGen (Cat. #: hkb-htlr7, San Diego, California, USA). These cells were originally designed for studying the stimulation of human TLR7 by monitoring the activation of NF-κB. A SEAP (secreted embryonic alkaline phosphatase) reporter gene was placed under the control of the IFN-β minimal promoter fused to five NF-κB and AP-1-binding sites. The SEAP was induced by activating NF-κB and AP-1 via stimulating HEK-Blue hTLR7 cells with TLR7 ligands. Therefore the reporter expression was declined by TLR7 antagonist under the stimulation of a ligand, such as R848 (Resiquimod), for incubation of 20 hrs. The cell culture supernatant SEAP reporter activity was determined using QUANTI-Blue™ kit (Cat. #: rep-qb1, Invivogen, San Diego, Ca, USA) at a wavelength of 640 nm, a detection medium that turns purple or blue in the presence of alkaline phosphatase.
HEK293-Blue-hTLR7 cells were incubated at a density of 250,000˜450,000 cells/mL in a volume of 170 μL in a 96-well plate in Dulbecco's Modified Eagle's medium (DMEM) containing 4.5 g/L glucose, 50 U/mL penicillin, […], […], 2 mM L-glutamine, 10% (v/v) heat-inactivated fetal bovine serum with addition of 20 μL test compound in a serial dilution in the presence of final DMSO at 1% and 10 μL of 20 uM R848 in above DMEM, perform incubation under 37° C. in a CO2 incubator for 20 hrs. Then 20 μL of the supernatant from each well was incubated with 180 μL Quanti-blue substrate solution at 37° C. for 2 hrs and the absorbance was read at 620˜655 nm using a spectrophotometer. The signaling pathway that TLR7 activation leads to downstream NF-κB activation has been widely accepted, and therefore similar reporter assay was modified for evaluating TLR7 antagonist.

SMILES | IC50 [nM]
[2H]c1ccc2c(N3C[C@H](CN4CC5(C4)OCc4cc(N6CC(N)C6)ncc45)O[C@H](C)C3)ccc(C#N)c2n1 [Example 32, 5-[(2S,6R)-2-[[6-(3-aminoazetidin-1-yl)spiro[1H-furo[3,4-c]pyridine-3,3′-azetidine]-1′-yl]methyl]-6-methyl-morpholin-4-yl]-2-deuterio-quinoline-8-carbonitrile] | 4
C[C@@H]1CN(c2ccc(C#N)n3nccc23)C[C@H](CN2CC3(C2)OCc2cc(N4CC(C)(N)C4)cnc23)O1 [Example 26, 4-[(2S,6R)-2-[[3-(3-amino-3-methyl-azetidin-1-yl)spiro[5H-furo[3,4-b]pyridine-7,3′-azetidine]-1′-yl]methyl]-6-methyl-morpholin-4-yl]pyrazolo[1,5-a]pyridine-7-carbonitrile] | 24
C[C@@H]1CN(c2ccc(C#N)n3ncc(F)c23)C[C@H](CN2CC3(C2)OCc2cc(N4CC5(CNC5)C4)ccc23)O1 [Example 12, 4-[(2S,6R)-2-[[6-(2,6-diazaspiro[3.3]heptan-2-yl)spiro[1H-isobenzofuran-3,3′-azetidine]-1′-yl]methyl]-6-methyl-morpholin-4-yl]-3-fluoro-pyrazolo[1,5-a]pyridine-7-carbonitrile] | 10
C[C@@H]1CN(c2ccc(C#N)n3ncc(F)c23)C[C@H](CN2CC3(C2)OCc2cc(N4CC5(CN(C)C5)C4)ccc23)O1 [Example 2, 3-fluoro-4-[(2R,6S)-2-methyl-6-[[6-(6-methyl-2,6-diazaspiro[3.3]heptan-2-yl)spiro[1H-isobenzofuran-3,3′-azetidine]-1′-yl]methyl]morpholin-4-yl]pyrazolo[1,5-a]pyridine-7-carbonitrile] | 10
[2H]c1ccc2c(N3C[C@H](CN4CC5(C4)OCc4cc(N6C[C@H]7NCCO[C@@H]7C6)ncc45)O[C@H](C)C3)ccc(C#N)c2n1 [Example 28, 5-[(2S,6R)-2-[[6-[(4aR,7aR)-3,4,4a,5,7,7a-hexahydro-2H-pyrrolo[3,4-b][1,4]oxazin-6-yl]spiro[1H-furo[3,4-c]pyridine-3,3′-azetidine]-1′-yl]methyl]-6-methyl-morpholin-4-yl]-2-deuterio-quinoline-8-carbonitrile] | 7
[2H]c1ccc2c(N3C[C@H](CN4CC5(C4)OCc4cc(N6CC(C)(N)C6)cnc45)O[C@H](C)C3)ccc(C#N)c2n1 [Example 21, 5-[(2S,6R)-2-[[3-(3-amino-3-methyl-azetidin-1-yl)spiro[5H-furo[3,4-b]pyridine-7,3′-azetidine]-1′-yl]methyl]-6-methyl-morpholin-4-yl]-2-deuterio-quinoline-8-carbonitrile] | 7
C[C@@H]1CN(c2cc(=O)n(C)c3ncccc23)C[C@H](CN2CC3(C2)OCc2cc(N4CC(N)C4)ccc23)O1 [Example 13, 4-[(2S,6R)-2-[[6-(3-aminoazetidin-1-yl)spiro[1H-isobenzofuran-3,3′-azetidine]-1′-yl]methyl]-6-methyl-morpholin-4-yl]-1-methyl-1,8-naphthyridin-2-one] | 10
C[C@@H]1CN(c2ccc(C#N)n3ncc(F)c23)C[C@H](CN2CC3(C2)OCc2cc(N4CC[C@](C)(N)C4)ccc23)O1 [Example 5, 4-[(2S,6R)-2-[[6-[(3S)-3-amino-3-methyl-pyrrolidin-1-yl]spiro[1H-isobenzofuran-3,3′-azetidine]-1′-yl]methyl]-6-methyl-morpholin-4-yl]-3-fluoro-pyrazolo[1,5-a]pyridine-7-carbonitrile] | 19
C[C@@H]1CN(c2ccc(C#N)n3ncc(F)c23)C[C@H](CN2CC3(C2)OCc2cc(N[C@H]4CNC[C@H]4F)ccc23)O1 [Example 3, 3-fluoro-4-[(2S,6R)-2-[[6-[[(3S,4R)-4-fluoropyrrolidin-3-yl]amino]spiro[1H-isobenzofuran-3,3′-azetidine]-1′-yl]methyl]-6-methyl-morpholin-4-yl]pyrazolo[1,5-a]pyridine-7-carbonitrile] | 20
C[C@@H]1CN(c2ccc(C#N)n3nccc23)C[C@H](CN2CC3(C2)OCc2cc(N4CC(N)C4)ccc23)O1 [Example 19, 4-[(2S,6R)-2-[[6-(3-aminoazetidin-1-yl)spiro[1H-isobenzofuran-3,3′-azetidine]-1′-yl]methyl]-6-methyl-morpholin-4-yl]pyrazolo[1,5-a]pyridine-7-carbonitrile] | 19
[2H]c1ccc2c(N3C[C@H](CN4CC5(C4)OCc4cc(N6C[C@H]7NCCO[C@@H]7C6)ccc45)O[C@H](C)C3)ccc(C#N)c2n1 [Example 17, 5-[(2S,6R)-2-[[6-[(4aR,7aR)-3,4,4a,5,7,7a-hexahydro-2H-pyrrolo[3,4-b][1,4]oxazin-6-yl]spiro[1H-isobenzofuran-3,3′-azetidine]-1′-yl]methyl]-6-methyl-morpholin-4-yl]-2-deuterio-quinoline-8-carbonitrile] | 15
C[C@@H]1CN(c2ccc(C#N)n3ncc(F)c23)C[C@H](CN2CC3(C2)OCc2cc(N4CC(C)(N)C4)ccc23)O1 [Example 1, 4-[(2S,6R)-2-[[6-(3-amino-3-methyl-azetidin-1-yl)spiro[1H-isobenzofuran-3,3′-azetidine]-1′-yl]methyl]-6-methyl-morpholin-4-yl]-3-fluoro-pyrazolo[1,5-a]pyridine-7-carbonitrile] | 12
C[C@@H]1CN(c2ccc(C#N)n3ncc(F)c23)C[C@H](CN2CC3(C2)OCc2cc(N4CC(N)C4)ccc23)O1 [Example 9, 4-[(2S,6R)-2-[[6-(3-aminoazetidin-1-yl)spiro[1H-isobenzofuran-3,3′-azetidine]-1′-yl]methyl]-6-methyl-morpholin-4-yl]-3-fluoro-pyrazolo[1,5-a]pyridine-7-carbonitrile] | 5
[2H]c1ccc2c(N3C[C@H](CN4CC5(C4)OCc4cc(N6CC(N)C6)cnc45)O[C@H](C)C3)ccc(C#N)c2n1 [Example 20, 5-[(2S,6R)-2-[[3-(3-aminoazetidin-1-yl)spiro[5H-furo[3,4-b]pyridine-7,3′-azetidine]-1′-yl]methyl]-6-methyl-morpholin-4-yl]-2-deuterio-quinoline-8-carbonitrile] | 9
[2H]c1ccc2c(N3C[C@H](CN4CC5(C4)OCc4cc(N6CCNCC6)ccc45)O[C@H](C)C3)ccc(C#N)c2n1 [Example 18, 2-deuterio-5-[(2R,6S)-2-methyl-6-[(6-piperazin-1-ylspiro[1H-isobenzofuran-3,3′-azetidine]-1′-yl)methyl]morpholin-4-yl]quinoline-8-carbonitrile] | 7
C[C@@H]1CN(c2ccc(C#N)n3ncc(F)c23)C[C@H](CN2CC3(C2)OCc2cc(N4CC5(CNCCO5)C4)ccc23)O1 [Example 4, 3-fluoro-4-[(2R,6S)-2-methyl-6-[[6-(5-oxa-2,8-diazaspiro[3.5]nonan-2-yl)spiro[1H-isobenzofuran-3,3′-azetidine]-1′-yl]methyl]morpholin-4-yl]pyrazolo[1,5-a]pyridine-7-carbonitrile] | 16
[2H]c1ccc2c(N3C[C@H](CN4CC5(C4)OCc4cc(N6C[C@@H](N)[C@H](OC)C6)ccc45)O[C@H](C)C3)ccc(C#N)c2n1 [Example 16, 5-[(2S,6R)-2-[[6-[(3R,4R)-3-amino-4-methoxy-pyrrolidin-1-yl]spiro[1H-isobenzofuran-3,3′-azetidine]-1′-yl]methyl]-6-methyl-morpholin-4-yl]-2-deuterio-quinoline-8-carbonitrile] | 19
